System: NCI/ADR-RES
Assay: Antiproliferative activity against human NCI-ADR-RES cells assessed as cell growth inhibition at 10 uM incubated for 24 hrs by sulforhodamine B assay
Assay type: functional
Conditions: read-out: GI

## COc1ccc(OC)c(-c2nc(SCC(=O)c3ccc(Br)cc3)nc(Nc3ccc(S(N)(=O)=O)cc3)c2C#N)c1
  inhibition of growth at 10 µM: 25.6%
